# Measured values as given in US20230173029A1, “TREATMENT OF CARDIAC REMODELLING” (UNIVERSITETET I OSLO, priority 2020, published 2023).
# Columns and labels:
# [1] = test system: rat neonatal cardiomyocytes; test: In vitro [3H]leucine incorporation in ANGII-stimulated neonatal cardiomyocytes; format: cell-based; details: 24 h
# Protocol: Primary cultures of rat cardiomyocyte cells were prepared as previously described (Larsen et al., Cardiovascular Research 80(1): 47-54, 2008). In brief, hearts from 1-3 day old Wistar rats (Taconic), were isolated by […] and pancreatin digestion. Cardiomyocytes were separated from noncardiomyocytes by differential attachment to uncoated culture flasks (90151; Techno Plastic Products). Cardiomyocytes were allowed to attach to 6- or 12-well culture plates (Corning International, Corning, N.Y.) coated with gelatine/fibronectin (G-1890/F1141; Sigma, St. Louis, Mo.) overnight in plating medium (2 or 1 ml) at a density of 2.5×10^5 cells/ml medium [DMEM (41965; GIBCO-BRL, Invitrogen) supplemented with penicillin/streptomycin/glutamine (G6784; Sigma), medium 199 (31150; GIBCO-BRL), HEPES (15630; GIBCO-BRL), horse serum (14-703E; Bio-Whittaker, Lonza), and fetal calf serum (14-701E; Bio-Whittaker)]. […]
# 5 μCi/ml [3H]leucine (American Radiolabeled Chemicals) were added at the same time as ANG II and the cells were washed six times in 95% EtOH before being harvested in 0.2 M NaOH 24 h after stimulation, as previously described (Halvorsen et al., Journal of Lipid Research 39(4): 901-912, 1998). […] [3H]leucine incorporation was quantified by measuring counts per minute in duplicates from each sample with the Wallac Winspectral 1414 liquid scintillation counter (PerkinElmer). […]
# [2] = test system: left ventricular cardiomyocytes; test: Cardiomyocyte isolation and t-tubule structure (di-8-ANEPPS confocal imaging); format: in vivo, rat; details: HT Dahl/SS rats, 50 or 100 ng/kg/day s.c. (pooled)
# Protocol: (§1) A total of 29 adult Dahl salt-sensitive (Dahl/SS) male rats with an initial weight of 150 to 200 g were included in the study. Rats were purchased from Charles River Laboratories (USA) and housed in a room with a 12/12-hour light cycle, a temperature of 21° C., and a humidity of 55%. Rats were maintained on a normal salt diet up to seven weeks of age. Twenty-two Dahl/SS were then randomly switched to a high salt diet for 6 weeks to induce hypertension, whilst 7 rats were kept normotensive (NT) on normal salt diet. Drinking water and food was provided ad libitum.
# After 2 weeks of high salt diet, 15 hypertensive (HT) rats were started on treatment with proANP31-67. Rats treated with proANP31-67 received one of two dosages: 50 ng/kg/day (n=8) or 100 ng/kg/day (n=7). A total of 14 rats received only vehicle: control rats on a normal salt diet (n=7); and HT rats on a high salt diet (n=7). Rats were randomly assigned to the 3 groups (i.e. control normal salt; high salt untreated; high salt plus treatment).
# Drug or vehicle was delivered via Alzet osmotic mini-pumps (Model 2004; mean pumping rate […], mean fill volume […]) implanted subcutaneously (as instructed by the manufacturer) for 28 days. Animals were treated with buprenorphine (0.05 mg/kg s.c.) as analgesic 30 minutes before and up to 1 day following implantation of pumps.
# A subset of rats was used for analyses of t-tubule structure in isolated left ventricular cardiomyocytes. These animals were anaesthetised as described above and euthanised by removal of the heart. […]
# Cardiomyocytes were then isolated as previously described (Frisk et al., American Journal of Physiology—Heart and Circulatory 307: H609-620, 2014). […] Fluorescence was excited at 488 nm and emitted light above 500 nm was measured. t-tubule captures were recorded with 1871×1871-pixel XY images, recorded as z-stacks (spatial resolution: 77×77×500 nm). […] Cell area, t-tubule density and distance to nearest t-tubule or sarcolemmal membrane were analysed as previously described (Frisk et al., Cardiovascular Research 112: 445-451, 2016).
# [3] = test system: Myh7; test: Myh7 gene expression in left ventricle tissue by qPCR; format: in vivo, rat; details: HT Dahl/SS rats
# Protocol: as §1
# After 2 weeks of high salt diet, 15 hypertensive (HT) rats were started on treatment with proANP31-67. Rats treated with proANP31-67 received one of two dosages: 50 ng/kg/day (n=8) or 100 ng/kg/day (n=7). […]
# Total RNA was extracted from left ventricle tissue using an RNeasy Fibrous Tissue Mini Kit (Qiagen, Cat. #74704). RNA concentration and quality was assessed by NanoDrop ND-1000 Spectrophotometer (Thermo Fisher Scientific). cDNA synthesis was performed using an iSCRIPT synthesis kit (Bio-Rad). Transcript levels of Mhy7 (Rn00568328_m1) and Rpl32 (Rn00820748_g1) were determined using TaqMan assays (Applied Biosystems) detected on a QuantStudio3 (Thermo Fisher Scientific) and analysed using QuantStudio™ Design (Thermo Fisher Scientific). Mhy7 mRNA levels were calculated by the ΔΔCt method and normalized to Rpl32 transcript value. […]
substance,measurement,setting,value
"proANP31-67: Human proANP31-67, linear peptide fragment of proANP consisting of SEQ ID NO: 1; also known as vessel dilator, VSDL (EVVPPQVLSEPNEEAGAALSPLPEVPPWTGEVSPAQR; listed as Homo sapiens)",ANGII-induced hypertrophy as indexed by [3H]-leucine incorporation,"[1]; 37.5 ng/ml proANP31-67, 1 μM ANG II",prevented
same,ANGII-induced hypertrophy as indexed by [3H]-leucine incorporation,"[1]; 150 ng/ml proANP31-67, 1 μM ANG II",prevented
same,cardiomyocyte size,[2]; FIG. 3B,preserved
same,t-tubule density,[2]; FIG. 3C,normal
same,increase of maximal intracellular distance from each point in the cytosol to the nearest t-tubule or surface membrane,[2]; FIG. 3D,prevented
same,expression of the Myh7 gene associated with adverse cardiac hypertrophy,"[3]; 25 ng/kg/day s.c., FIG. 5F",attenuated
same,expression of the Myh7 gene associated with adverse cardiac hypertrophy,"[3]; 50 or 100 ng/kg/day s.c. (pooled), FIG. 1F",attenuated
